# Data as given in patent US20260130395A1, “Water Dispersible Botanical Compositions” (Aquila Black Limited, priority 2021, published 2026).
# Test: Stability of cannabinoid compounds and Vitamin E components in Beverage 1 (AB White) by LCMSMS
# Format: physicochemical
compound,measurement,setting,value
Cc1c(C)c2c(c(C)c1OC(=O)CCC(=O)O)CC[C@@](C)(CCC[C@H](C)CCC[C@H](C)CCCC(C)C)O2 [α-Tocopheryl succinate],Stability of Vitamin Es in AB White,"stored at 8° C., 0 days",12.8 µg/mL
same,Stability of Vitamin Es in AB White,"stored at 8° C., 1 days",11.83 µg/mL
same,Stability of Vitamin Es in AB White,"stored at 8° C., 2 days",12.31 µg/mL
same,Stability of Vitamin Es in AB White,"stored at 8° C., 3 days",11.94 µg/mL
same,Stability of Vitamin Es in AB White,"stored at 8° C., 5 days",11.44 µg/mL
same,Stability of Vitamin Es in AB White,"stored at 8° C., 8 days",11.48 µg/mL
same,Stability of Vitamin Es in AB White,"stored at 8° C., 9 days",12.08 µg/mL
same,Stability of Vitamin Es in AB White,"stored at 8° C., 10 days",12.28 µg/mL
same,Stability of Vitamin Es in AB White,"stored at 8° C., 11 days",11.94 µg/mL
same,Stability of Vitamin Es in AB White,"stored at 8° C., 12 days",12.41 µg/mL
same,Stability of Vitamin Es in AB White,"stored at 8° C., 15 days",11.56 µg/mL
same,Stability of Vitamin Es in AB White,"stored at 8° C., 16 days",12.09 µg/mL
same,Stability of Vitamin Es in AB White,"stored at 8° C., 17 days",11.60 µg/mL
same,Stability of Vitamin Es in AB White,"stored at 8° C., 18 days",11.59 µg/mL
same,Stability of Vitamin Es in AB White,"stored at 8° C., 19 days",11.89 µg/mL
same,Stability of Vitamin Es in AB White,"stored at 8° C., 22 days",11.81 µg/mL
same,Stability of Vitamin Es in AB White,"stored at 8° C., 23 days",11.46 µg/mL
same,Stability of Vitamin Es in AB White,"stored at 8° C., 24 days",11.75 µg/mL
same,Stability of Vitamin Es in AB White,"stored at 8° C., 25 days",12.41 µg/mL
same,Stability of Vitamin Es in AB White,"stored at 8° C., 26 days",11.64 µg/mL
same,Stability of Vitamin Es in AB White,"stored at 8° C., 29 days",12.43 µg/mL
same,Stability of Vitamin Es in AB White,"stored at 8° C., 30 days",11.78 µg/mL
same,Stability of Vitamin Es in AB White,"stored at 8° C., 60 days",12.18 µg/mL
same,Stability of Vitamin Es in AB White,"stored at 8° C., 90 days",11.33 µg/mL
same,Stability of Vitamin Es in AB White,"stored at 8° C., 120 days",11.31 µg/mL
same,Stability of Vitamin Es in AB White,"stored at 8° C., 150 days",12.29 µg/mL
same,Stability of Vitamin Es in AB White,"stored at 8° C., 180 days",11.74 µg/mL
same,Stability of Vitamin Es in AB White,"stored at 8° C., 210 days",11.40 µg/mL
same,Stability of Vitamin Es in AB White,"stored at 8° C., 240 days",11.70 µg/mL
same,Stability of Vitamin Es in AB White,"stored at 8° C., 270 days",11.24 µg/mL
same,Stability of Vitamin Es in AB White,"stored at 8° C., 300 days",11.53 µg/mL
same,Stability of Vitamin Es in AB White,"stored at 8° C., 330 days",11.81 µg/mL
same,Stability of Vitamin Es in AB White,"stored at 8° C., 360 days",11.10 µg/mL
same,Stability of Vitamin Es in AB White,"stored at 8° C., 390 days",11.34 µg/mL
same,Stability of Vitamin Es in AB White,"stored at 8° C., 420 days",11.30 µg/mL
same,Stability of Vitamin Es in AB White,"stored at 8° C., 450 days",11.28 µg/mL
same,Stability of Vitamin Es in AB White,"stored at 8° C., 480 days",10.58 µg/mL
same,Stability of Vitamin Es in AB White,"stored at 8° C., 510 days",10.83 µg/mL
same,Stability of Vitamin Es in AB White,"stored at 8° C., 540 days",10.58 µg/mL
same,Stability of Vitamin Es in AB White,"stored at 8° C., 570 days",10.93 µg/mL
same,Stability of Vitamin Es in AB White,"stored at 21-25° C., 0 days",12.8 µg/mL
same,Stability of Vitamin Es in AB White,"stored at 21-25° C., 1 days",12.6 µg/mL
same,Stability of Vitamin Es in AB White,"stored at 21-25° C., 2 days",12.3 µg/mL
same,Stability of Vitamin Es in AB White,"stored at 21-25° C., 3 days",12.0 µg/mL
same,Stability of Vitamin Es in AB White,"stored at 21-25° C., 5 days",12.0 µg/mL
same,Stability of Vitamin Es in AB White,"stored at 21-25° C., 8 days",11.9 µg/mL
same,Stability of Vitamin Es in AB White,"stored at 21-25° C., 9 days",12.7 µg/mL
same,Stability of Vitamin Es in AB White,"stored at 21-25° C., 10 days",12.5 µg/mL
same,Stability of Vitamin Es in AB White,"stored at 21-25° C., 11 days",11.8 µg/mL
same,Stability of Vitamin Es in AB White,"stored at 21-25° C., 12 days",11.6 µg/mL
same,Stability of Vitamin Es in AB White,"stored at 21-25° C., 15 days",12.6 µg/mL
same,Stability of Vitamin Es in AB White,"stored at 21-25° C., 16 days",11.7 µg/mL
same,Stability of Vitamin Es in AB White,"stored at 21-25° C., 17 days",13.0 µg/mL
same,Stability of Vitamin Es in AB White,"stored at 21-25° C., 18 days",12.9 µg/mL
same,Stability of Vitamin Es in AB White,"stored at 21-25° C., 19 days",12.3 µg/mL
same,Stability of Vitamin Es in AB White,"stored at 21-25° C., 22 days",12.2 µg/mL
same,Stability of Vitamin Es in AB White,"stored at 21-25° C., 23 days",12.3 µg/mL
same,Stability of Vitamin Es in AB White,"stored at 21-25° C., 24 days",12.5 µg/mL
same,Stability of Vitamin Es in AB White,"stored at 21-25° C., 25 days",12.4 µg/mL
same,Stability of Vitamin Es in AB White,"stored at 21-25° C., 26 days",12.2 µg/mL
same,Stability of Vitamin Es in AB White,"stored at 21-25° C., 29 days",12.4 µg/mL
same,Stability of Vitamin Es in AB White,"stored at 21-25° C., 30 days",12.0 µg/mL
same,Stability of Vitamin Es in AB White,"stored at 21-25° C., 60 days",11.9 µg/mL
same,Stability of Vitamin Es in AB White,"stored at 21-25° C., 90 days",11.9 µg/mL
same,Stability of Vitamin Es in AB White,"stored at 21-25° C., 120 days",12.1 µg/mL
same,Stability of Vitamin Es in AB White,"stored at 21-25° C., 150 days",12.7 µg/mL
same,Stability of Vitamin Es in AB White,"stored at 21-25° C., 180 days",11.6 µg/mL
same,Stability of Vitamin Es in AB White,"stored at 21-25° C., 210 days",11.5 µg/mL
same,Stability of Vitamin Es in AB White,"stored at 21-25° C., 240 days",11.5 µg/mL
same,Stability of Vitamin Es in AB White,"stored at 21-25° C., 270 days",11.2 µg/mL
same,Stability of Vitamin Es in AB White,"stored at 21-25° C., 300 days",11.4 µg/mL
same,Stability of Vitamin Es in AB White,"stored at 21-25° C., 330 days",11.3 µg/mL
same,Stability of Vitamin Es in AB White,"stored at 21-25° C., 360 days",11.5 µg/mL
same,Stability of Vitamin Es in AB White,"stored at 21-25° C., 390 days",11.3 µg/mL
same,Stability of Vitamin Es in AB White,"stored at 21-25° C., 420 days",11.6 µg/mL
same,Stability of Vitamin Es in AB White,"stored at 21-25° C., 450 days",11.5 µg/mL
same,Stability of Vitamin Es in AB White,"stored at 21-25° C., 480 days",10.8 µg/mL
same,Stability of Vitamin Es in AB White,"stored at 21-25° C., 510 days",10.9 µg/mL
same,Stability of Vitamin Es in AB White,"stored at 21-25° C., 540 days",10.9 µg/mL
same,Stability of Vitamin Es in AB White,"stored at 21-25° C., 570 days",10.6 µg/mL
